Patent publication US20130089591A1, “Compositions” (Givaudan SA, priority 2010, published 2013)

Key:
[1] = Aggregation of polyurea capsules, Method 5.7; assay type: physicochemical; settings: polyurea Method 5.7; phase B at 5% in phase A of Table 1
Experimental: An oil phase was prepared when Desmodur N3300 (Bayer) was added in perfume oil at a level of 6.7%.
An aqueous phase (Solution S1) was prepared when_Mowiol 4-88 (Kururay) was added in water, at a level of 1.1%.
An aqueous phase (Solution S2) was prepared when Hydrosil 1151 (Evonik) was added in water, at a level of 75%.
134 g of oil phase was mixed with 440 g of solution 51, to form an oil-in-water emulsion, in a 1 L vessel equipped with a propeller operating at 1000 rpm.
After 10 min of stirring, 45 g of solution S2 was added.
[…] the slurry was kept at 40° C. for 2 h more before cooling.
The Method 5.7 of Example 5 was applied to encapsulate different perfume oils described as phase A (non aldehyde raw materials) and phase B (aldehyde raw materials).
The composition of Phase A is described in Table 1. Phase B is an aldehyde perfume molecule used as such or as its precursor form added at a level of 5% in Phase A.

[2] = Aggregation of polyurea capsules, Method 5.5; assay type: physicochemical; set-up: key: ∘: no aggregation of the capsules; +: aggregation of few capsules together only visible under microscopy; ++: aggregates of mm size; +++: important aggregation; ++++: aggregation is such that a cake is obtained; settings: polyurea Method 5.5, phase A of Table 1; for Encapsulation, No precursor (scale of aggregation): free aldehyde as phase B; for Encapsulation, With precursor (scale of aggregation): precursor (Method 1.1) as phase B
Experimental: An oil phase was prepared when Desmodur W and Desmodur N3300 (Bayer) were added in perfume oil at a level of 2.2% and 13% respectively.
An aqueous phase (Solution S1) was prepared when Gantrez AN119 (ISP) was added to water, at a level of 1.6%. The solution was heated at 70° C. for 10 min to disperse the polymer.
An aqueous phase (Solution S2) was prepared when Ethylene diamine (Merck) was added to water, at a level of 7.5%.
30 g of the oil phase was mixed with 80 g of solution S1, to form an oil-in-water emulsion, in a 250 mL vessel equipped with a propeller operating at 1000 rpm.
After 10 min of stirring, 20 g of solution S2 was added.
The slurry was stirred for 30 min at room temperature, then heated to 60° C. and stirred for 3 H at 60° C. before cooling.
The Method 5.5 of Example 5 was applied to encapsulate different perfume oils described as phase A (non aldehyde raw materials) and phase B (aldehyde raw materials).
The composition of Phase A was described in Table 1 above. Phase B is an aldehyde perfume molecule used as such or as its precursor form prepared according to Method 1.1.
According to the aspect of the slurry a scale of aggregation was defined as follow: […]
(§1) ∘ no aggregation of the capsules + aggregation of few capsules together only visible under microscopy ++ aggregates of mm size +++ important aggregation ++++ aggregation is such that a cake is obtained
Phase B was added at a level of 20% of aldehyde in phase A.

[3] = Aggregation of polyamide capsules (Example 2 method); assay type: physicochemical; set-up: key to Encapsulation, No precursor (scale of aggregation) / Encapsulation, With precursor (scale of aggregation): ∘: no aggregation of the capsules; +: aggregation of few capsules together only visible under microscopy; ++: aggregates of mm size; +++: important aggregation; ++++: aggregation is such that a cake is obtained; settings: for Encapsulation, No precursor (scale of aggregation): free aldehyde as phase B at 5% in phase A of Table 1; for Encapsulation, With precursor (scale of aggregation): precursor of the aldehyde (Method 1.1) as phase B at 5% in phase A of Table 1
Experimental: An oil phase was prepared by dissolving isophtahaloyl dichloride (Fluka) in oil (oil composition specified in the examples below) at a level of 10%
An aqueous solution (Solution S1) was prepared by dissolving a polyvinyl alcohol Mowiol 4-88 (Kuru ray) in water at a level of 1%.
An aqueous solution (Solution S2) was prepared when triethylentetraamine (Hunstman) was diluted in water at a level of 3%.
100 g of the oil phase was mixed with 450 g of solution S1 to form an oil-in-water emulsion in a 1 L reactor equipped with a MIG stirrer operating at 1000 rpm. After 5 minutes of mixing, 450 g of solution S2 was slowly added. The resultant slurry of polyamide capsules was kept under stirring for 2 H.
Two capsule populations were formed. A first encapsulating IPM (isopropyl myristate) and a second containing IPM+5% of ethyl vaniline. The capsules were made according to the method of Example 2.
The methodology of Example 2 was applied to encapsulate different perfume oils described as phase A (non aldehyde raw materials) and phase B (aldehyde raw materials).
The phase B was added at 5% to the phase A prior to encapsulation. Different compositions of phase B have been used corresponding each time to a single aldehyde perfume molecule or to its precursor formed according to the methodology of Method 1.1, above.
According to the condition of the slurry a scale of aggregation has been defined as follows: […]
as §1

[4] = Aggregation of polyurea capsules, Method 5.6; assay type: physicochemical; set-up: key: ∘: no aggregation of the capsules; +: aggregation of few capsules together only visible under microscopy; ++: aggregates of mm size; +++: important aggregation; ++++: aggregation is such that a cake is obtained; settings: polyurea Method 5.6, phase A of Table 1; for Encapsulation, No precursor (scale of aggregation): free aldehyde as phase B; for Encapsulation, With precursor (scale of aggregation): precursor (Method 1.1) as phase B
Experimental: An oil phase was prepared when Desmodur VL R20 (Bayer) was added in perfume oil at a level of 2.5%.
An aqueous phase (Solution S1) was prepared when Mowiol 4-88 (Kururay) was added in water, at a level of 0.1%.
An aqueous phase (Solution S2) was prepared when diethylentriamine (Merck) was added in water, at a level of 2%.
100 g of oil phase was mixed with 250 g of solution S1, to form an oil-in-water emulsion, in a 500 mL vessel equipped with a propeller operating at 1000 rpm.
After 10 min of stirring, 50 g of solution S2 was added.
The slurry was stirred for 4 h at room temperature.
The Method 5.6 of Example 5 was applied to encapsulate different perfume oils described as phase A (non aldehyde raw materials) and phase B (aldehyde raw materials).
The composition of Phase A is described in Table 1. Phase B is an aldehyde perfume molecule used as such or as its precursor form prepared according to Method 1.1.
According to the aspect of the slurry a scale of aggregation has been defined as follow: […]
as §1

[5] = Aggregation of polyurea capsules, Method 5.4; assay type: physicochemical; settings: polyurea Method 5.4; phase B at 4% of aldehyde in phase A
Experimental: An oil phase was prepared when Desmodur W (Bayer) was added in perfume oil at a level of 16.6%.
An aqueous phase (Solution S1) was prepared when Mowiol 40-88 (Kururay) was added in water, at a level of 4.5%.
An aqueous phase (Solution S2) was prepared when Lupasol PR8515 (BASF) was added in water, at a level of 10%.
240 g of oil phase was mixed with 640 g of solution S1, to form an oil-in-water emulsion, in a 1 L reactor equipped with a mig operating at 1000 rpm.
After 30 min, the slurry is heated up to 50° C. and the solution S2 is slowly added (1 H).
The slurry is then heated up to 70° C. and kept for 2 H at 70° C., then heated to 80° C. and kept for 1 H at 80° C., then heated to 85° C. and kept for 1 H at 85° C., then cooled to 70° C. and kept for 1 H at 70° C. before final cooling at 25° C.
The Method 5.4 of Example 5 was applied to encapsulate different perfume oils described as phase A (non aldehyde raw materials) and phase B (aldehyde raw materials).
Phase B is tricyclal or the precursor of tricyclal obtained according to Method 1.1.
Phase B was added at a level of 4% of aldehyde in phase A.

[6] = Water solubility of the aldehyde
[7] = Aggregation of polyurea capsules, Method 5.1; assay type: physicochemical
Experimental: An oil phase was prepared by adding Desmodur W (Isocyanate from Bayer) to a perfume oil at a level of 16.6%.
An aqueous phase (solution S1) was prepared by adding Luviskol k90 (BASF) to water, at a level of 4.5%. The pH of the solution was adjusted to 11.5 by addition of NaOH at 10%.
An aqueous phase (Solution S2) was prepared when Lupasol PR8515 (BASF) was added to water, at a level of 10%.
300 g of the oil phase was mixed with 500 g of solution S1, to form an oil-in-water emulsion, in a 1 L reactor equipped with a MIG stirrer operating at 1000 rpm.
After 30 minutes of mixing, 200 g of solution S2 was added over a period of 1 minute.
After 30 minutes, the slurry was heated up to 70° C. (1 H), then kept for 2 H at 70° C., then heated to 80° C. and kept for 1 H at 80° C., then heated to 85° C. and kept for 1 H at 85° C., then cooled to 70° C. and kept for 1 H at 70° C. before final cooling at 25° C.
The Method 5.1 of Example 5 was applied to encapsulate different perfume oils described as phase A (non aldehyde raw materials) and phase B (aldehyde raw materials).
In the following trials, phase A was IPM and phase B was aldehyde perfume molecules. Phase B was added at a level of 5% in phase A.
Phase B contains aldehyde C11 iso or the corresponding precursor prepared according to Method 1.1.
Phase B was added at a level of 5% in phase A.

Row | SMILES | Slurry aspect [1] | Encapsulation, No precursor (scale of aggregation) [2] | Encapsulation, With precursor (scale of aggregation) [2] | Encapsulation, No precursor (scale of aggregation) [3] | Encapsulation, With precursor (scale of aggregation) [3] | Encapsulation, No precursor (scale of aggregation) [4] | Encapsulation, With precursor (scale of aggregation) [4] | Aggregation of the capsules obtained [5] | Water solubility ([6]; Table 2) [ppm] | Water solubility ([6]; Table 3) [ppm] | Water solubility ([6]; Table of Example 11) [ppm] | Water solubility ([6]; Table of Example 13) [ppm] | Quality of the capsules examined microscopically ([7]; IPM + aldehyde) | Encapsulation (aggregation) ([7]; free aldehyde at 5% in IPM)
1 | CC(C=O)Cc1ccc(C(C)(C)C)cc1 (centres unmarked) [Lilial] | cake | ∘ | ∘ | ++ | ∘ | ∘ | ∘ |  |  |  |  |  |  | 
2 | CC1=CC(C)C(C=O)CC1 (centres unmarked) [Tricyclal] |  | ++++ | ∘ | ++++ | ∘ | +++ | ∘ | slightly aggregated | 700 | 700 | 700 | 700 | aggregated | Aggregation
